{"source": "a melting point compilation (Tetko et al.; mined from patent text by program, amines drawn as free bases though some values may be those of a salt)"}
{"units": {"melting point": "°C"}}
{"molecule": "COc1ccc(-c2c(C(=O)O)[nH]c3cc(OC)c(OC)cc23)cc1OC", "melting point": "198 to 200"}
{"molecule": "CCOC(=O)Nc1cc(C(=O)N(C)OC)c(Cl)cc1F", "melting point": 121}
{"molecule": "CC(C)Cc1nc(-c2cccnc2)c[nH]c1=O", "melting point": "195 to 196"}
{"molecule": "C[C@]12CC[C@H](O)CC1=CCC1C2CC[C@@]2(C)C1CC[C@@H]2c1c[nH]nn1", "note": "(stereo partly specified)", "melting point": "275 to 277"}
{"molecule": "CC(C)(C)c1nc2cc(N3CCCC3)c(N=C=S)cc2s1", "melting point": "89 to 90"}
{"molecule": "CC=CC(=O)C1C(C)CCCC1(C)C", "note": "(stereo unspecified)", "melting point": "8 to 9"}
{"molecule": "COC(=O)c1cccc(C=Cc2cccc(C(=O)OC)c2)c1", "melting point": "105 to 107"}
{"molecule": "COc1ccc(-c2nc(-c3ccn4c3CCC4)[nH]c2-c2ccc(OC)cc2)cc1", "melting point": 238}
{"molecule": "CC(C)OC(=O)c1cc(NC(=O)c2c(Cl)c(Cl)c(Cl)c(Cl)c2C(=O)O)ccc1Cl", "melting point": "178 to 179"}
{"molecule": "CC(C)(C)c1cc(CCC(=O)NCCNc2c(Cl)nc(Cl)c(Cl)c2C#N)cc(C(C)(C)C)c1O", "melting point": "150 to 160"}
{"molecule": "COc1cccc2c1CCC(COS(=O)(=O)c1ccc(C)cc1)C2", "note": "(stereo unspecified)", "melting point": "81 to 82"}
{"molecule": "NC(=O)c1cnn2cccc2c1NC1CCCCCC1", "melting point": 279}
{"molecule": "CN(C)SN(C)C(=O)ON=C1SCC(=O)NC1(C)C", "melting point": "165 to 167"}
{"molecule": "Clc1nc(-c2cccnc2)sc1-c1cccnc1", "melting point": "145 to 147"}
{"molecule": "Cc1ccc(C(=O)CO)cc1", "melting point": "83 to 87"}
{"molecule": "NS(=O)(=O)c1ccc(S(=O)(=O)CCCc2ccc(O)cc2)s1", "melting point": "112 to 115"}
{"molecule": "O=C(c1ccccc1F)C1CCN(CCc2c[nH]c3ccccc23)CC1", "melting point": "106 to 108"}
{"molecule": "NC(=O)c1cccc(Cc2c[nH]cn2)c1O", "melting point": 198}
{"molecule": "CSc1ccc(N2C(=O)N(CC(=O)Nc3c(C(C)C)cccc3C(C)C)C(=O)C23CCOCC3)cc1", "melting point": 240}
{"molecule": "CNC(=O)c1cccc(F)c1Nc1nc(Nc2ccc3c(c2)NC(=O)C(N2CCOCC2)CC3)ncc1Cl", "note": "(stereo unspecified)", "melting point": "270 to 271"}
{"molecule": "C=Cc1c(C(=O)NC2CC2)nnn1-c1ccc(C(=O)NCC)cc1", "melting point": 162}
{"molecule": "Nc1cccc2c1CN(C1CCC(=O)NC1=O)C2=O", "note": "(stereo unspecified)", "melting point": "250 to 252"}
{"molecule": "N#CC(Nc1ccc(SSc2ccc(NC(C#N)c3ccc(S(N)(=O)=O)cc3)cc2)cc1)c1ccc(S(N)(=O)=O)cc1", "note": "(stereo unspecified)", "melting point": "251 to 255"}
{"molecule": "CCOC(=O)N1CCCN(c2nc3ccccc3[nH]2)CC1", "melting point": "161 to 162"}
{"molecule": "C[C@H](NC(=O)CCS)C(=O)O", "melting point": 64}
{"molecule": "CC1(C)C(=O)Nc2cc3[nH]c(-c4ccco4)nc3cc21", "melting point": "311 to 316"}
{"molecule": "O=C(O)COc1ccc(OC(F)(F)F)cc1C(=O)NCc1cccc([N+](=O)[O-])c1", "melting point": "154 to 156"}
{"molecule": "CC(=O)N(C)c1scc(C)c1C(=O)c1ccccc1", "melting point": 122}
{"molecule": "Cc1ccc2c(n1)sc1c(=O)n(C)nnc12", "melting point": "169 to 171"}
{"molecule": "COc1ccccc1N1CCN(CCNc2c(OC)cnn(C)c2=O)CC1", "melting point": "144 to 148"}
{"molecule": "CN1CCN(C2=Nc3ccccc3Nc3ccsc32)CC1", "melting point": "202 to 206"}
{"molecule": "COC(=O)c1ccc2c(c1)CN(C(=O)OCc1ccccc1)C2", "melting point": "59 to 65"}
{"molecule": "O=[N+]([O-])c1cnc2sccc2c1Cl", "melting point": "110 to 113"}
{"molecule": "Cc1oc(-c2ccccc2)nc1COc1ccc(CO)cn1", "melting point": "121 to 122"}
{"molecule": "CCOC(=O)c1cnc(CCOC)nc1O", "melting point": "115 to 118"}
{"molecule": "O=C(NCCCCCn1ccnc1)c1ccc(Cl)nc1", "melting point": "110 to 112"}
{"molecule": "Cn1cnc2c1c1n[nH]c(=S)n1c(=O)n2Cc1ccccc1", "melting point": 278}
{"molecule": "CCC(=CC(CNC(=O)c1cccnc1O)=NO)C(C)[N+](=O)[O-]", "note": "(stereo unspecified)", "melting point": "92 to 95"}
{"molecule": "O=C1C=C(c2ccc(O)cc2)C(=O)N1", "melting point": "158 to 162"}
{"molecule": "O=CN(N=Cc1cccnc1)c1ccccc1", "melting point": "129 to 132"}
{"molecule": "CC(=O)C1=CCC2C3CCC4CC(O)CCC4(C)C3C(OC(=O)CCl)CC12C", "note": "(stereo unspecified)", "melting point": "160 to 162"}
{"molecule": "CCOC(=O)C1=C(C)N(C(C)=O)C(c2csc(C)n2)=NC1C1(F)C=CC=CC1Cl", "note": "(stereo unspecified)", "melting point": "164 to 166"}
{"molecule": "COc1ccc(-c2ccc3c(c2)C=C(C(=O)Nc2ccc(CN(C)C4CCOCC4)cc2)CCS3(=O)=O)cc1OC", "melting point": "195 to 197"}
{"molecule": "O=C(/C=C/c1c[nH]c2ccccc12)c1ccccn1", "melting point": "141 to 145"}
{"molecule": "CCCCCCS(=O)(=O)c1ccc(Oc2ccc(Br)cc2)nc1", "melting point": 94}
{"molecule": "CC(=O)c1ccc(O)c(C(C)C)c1", "melting point": "142 to 144"}
{"molecule": "CCC(=S)C1=C(C)NC2=C(C1)C(=O)c1ccccc12", "melting point": 240}
{"molecule": "N#Cc1c(N2CCc3ccccc3CC2)nc(CO)n(CC(F)(F)F)c1=O", "melting point": "181 to 185"}
{"molecule": "O=C1CCCC(n2nc(-c3c(-c4ccccc4)nn4ccccc34)ccc2=O)C1", "note": "(stereo unspecified)", "melting point": "126 to 127"}
{"molecule": "O=C1CO[C@@H]2CCCC[C@H]2O1", "note": "(relative stereo)", "melting point": "20 to 22"}
{"molecule": "CC(C)(C)OC(=O)NCCCCC(=O)Nc1ccc(OCc2ccccc2)c(C(=O)NCCC(=O)OCc2ccccc2)c1", "melting point": "97 to 99"}
